From article PMC8150020, “Studying the suitability of hybrid micelle liquid chromatography for estimating the lipophilicity of some partial dopamine agonists used to attain the reward circuit” (Royal Society Open Science, 2021)
Structures can show the parent of a compound that is named as a salt. Where two headings read alike, the source gives them in different places.

What was measured:
[1] = experimental determination of log Pm/w using MLC; assay type: physicochemical; details: 0.18 M SDS, 0.3% TEA, pH 6, column 40°C
Method: (§1) Three micelle-based mobile phases were developed for the separation of this mixture. In all three cases, the separation was carried out on a Prontosil Kromaplus C18 column (250 × 4.6 mm) of particle size 5 µm, Leonberg, Germany, which was kept at 40°C. […] Separation of the three drugs was accomplished using 254 nm as a detection wavelength, adopting a flow rate of 1.5 ml min^−1.
(§2) Different actual SDS concentrations for each mobile phase (after subtracting the CMC of SDS at 40°C) were plotted versus the inverse of the capacity factor for each drug, using the optimized chromatographic conditions for MLC, HMLC and MELC, where pH was adjusted to 6, and the column temperature was kept at 40°C for the three separation methods.

[2] = experimental determination of log Pm/w using HMLC; assay type: physicochemical; details: for experimental log Pm/w, column temperature 25°C: pH 6, 25°C; for experimental log Pm/w, column temperature 30°C: pH 6, 30°C; for experimental log Pm/w, column temperature 35°C: pH 6, 35°C
[3] = experimental determination of log Pm/w using MELC; assay type: physicochemical; details: 0.18 M SDS, 10% acetonitrile, 1% octane, 0.3% TEA, pH 6, column 40°C
Method: as §1, §2

[4] = parameters: method as in earlier work; details: cited from earlier work
[5] = parameters: method as in earlier work; details: cited from earlier work; remark: listed apart in the source
[6] = HMLC, pH 3, 40°C, read-out: log P (experimental log Pm/w) pH 3
[7] = HMLC, pH 4, 40°C, read-out: log P (experimental log Pm/w) pH 4

Structure (SMILES)	experimental log Pm/w MLC [1]	experimental log Pm/w, column temperature 25°C ([2]; HMLC)	experimental log Pm/w, column temperature 30°C ([2]; HMLC)	experimental log Pm/w, column temperature 35°C ([2]; HMLC)	experimental log Pm/w MELC [3]	pka [4]	reported log P [5]	chromatographic logP [2, 6]	chromatographic logP [2, 7]	experimental log Pm/w HMLC ([2]; 0.18 M SDS, 10% acetonitrile, 0.3% TEA, pH 6, column 40°C)	chromatographic logP ([2]; HMLC, pH 5, 40°C, read-out: log P (experimental log Pm/w) pH 5)	experimental log Pm/w, column temperature 40°C ([2]; HMLC, pH 6, 40°C)	chromatographic logP ([2]; HMLC, pH 6, 40°C, read-out: log P (experimental log Pm/w) pH 6)
CCCN[C@H]1CCc2nc(N)sc2C1 (racemic) [PRM, (RS)-4,5,6,7-tetrahydro-N-6-propyl-2,6-benzothiazolediamine dihydrochloride monohydrate]	0.9385	1.1714	2.197	2.228	1.316	10.5	2.34						
O=C1CCc2ccc(OCCCCN3CCN(c4cccc(Cl)c4Cl)CC3)cc2N1 [ARP, 7-[4-[4-(2,3-dichlorophenyl)piperazin-1-yl]butoxy]-3,4-dihydro-1H-quinolin-2-one]	2.182	3.12	3.66		2.275	10		4.23	4.52				
c1cnc(N2CCN(Cc3ccc4c(c3)OCO4)CC2)nc1 [PRB, 2-[4-(1,3-benzodioxol-5-ylmethyl)piperazin-1-yl] pyrimidine]	0.7334	0.976		1.208	1.491	6.95	1.8	0.86	1.09	1.648	1.1	1.648	1.65
